Earlier results as cited in PubChem BioAssay AID1259409 (Chemical Carcinogenesis Research Information System (CCRIS), 2018).

System: rodent chemically induced tumor inhibition, incidence and multiplicity
Experiment: CCRIS tumor inhibitor studies
Conditions: Route [Inhibitor]: ORAL, Promoter: NONE USED

Cc1c(-c2cnccn2)ssc1=S
tumour outcome (control, treated, inhibition, significance) (Carcinogen: AZOXYMETHANE, 25843-45-2, Dose [Inhibitor]: 0, 200 PPM IN DIET FOR 56 WK BEGINNING 2 WK PRIOR TO CARCINOGEN TREATMENT (STUDY DURATION: 56 WK), Species: RAT, Strain/Sex: F344/MALE, Target Tissue: Type of Lesion: SMALL INTESTINE (DISTAL): TUMOR, Dose [Carcinogen]: 15 MG/KG 1/WK FOR 2 WK): 12%, 5%, 58%, not significant | tumour outcome (control, treated, inhibition, significance) (Carcinogen: AZOXYMETHANE, 25843-45-2, Dose [Inhibitor]: 0, 200 PPM IN DIET FOR 56 WK BEGINNING 2 WK PRIOR TO CARCINOGEN TREATMENT (STUDY DURATION: 56 WK), Species: RAT, Strain/Sex: F344/MALE, Target Tissue: Type of Lesion: SMALL INTESTINE (PROXIMAL): TUMOR, Dose [Carcinogen]: 15 MG/KG 1/WK FOR 2 WK): 33%, 14%, 58%, not significant | tumour outcome (control, treated, inhibition, significance) (Carcinogen: AZOXYMETHANE, 25843-45-2, Dose [Inhibitor]: 0, 400 PPM IN DIET 7 WK PRIOR TO CARCINOGEN TREATMENT AND CONTINUING FOR STUDY DURATION (STUDY DURATION: 59 WK), Species: RAT, Strain/Sex: F344/MALE, Target Tissue: Type of Lesion: COLON: ADENOCARCINOMA, Dose [Carcinogen]: 15 MG/KG 1/WK FOR 2 WK): 72%, 50%, 31%, p<0.05 | tumour outcome (control, treated, inhibition, significance) (Carcinogen: AZOXYMETHANE, 25843-45-2, Dose [Inhibitor]: 0, 400 PPM IN DIET 7 WK PRIOR TO CARCINOGEN TREATMENT AND CONTINUING FOR STUDY DURATION (STUDY DURATION: 59 WK), Species: RAT, Strain/Sex: F344/MALE, Target Tissue: Type of Lesion: COLON: ADENOMA, Dose [Carcinogen]: 15 MG/KG 1/WK FOR 2 WK): 14%, 8%, 43%, not calculated | tumour outcome (control, treated, inhibition, significance) (Carcinogen: AZOXYMETHANE, 25843-45-2, Dose [Inhibitor]: 0, 400 PPM IN DIET 7 WK PRIOR TO CARCINOGEN TREATMENT AND CONTINUING FOR STUDY DURATION (STUDY DURATION: 59 WK), Species: RAT, Strain/Sex: F344/MALE, Target Tissue: Type of Lesion: SMALL INTESTINE: ADENOCARCINOMA, Dose [Carcinogen]: 15 MG/KG 1/WK FOR 2 WK): 50%, 8%, 84%, p<0.001 | tumour outcome (control, treated, inhibition, significance) (Carcinogen: AZOXYMETHANE, 25843-45-2, Dose [Inhibitor]: 0, 400 PPM IN DIET 7 WK PRIOR TO CARCINOGEN TREATMENT AND CONTINUING FOR STUDY DURATION (STUDY DURATION: 59 WK), Species: RAT, Strain/Sex: F344/MALE, Target Tissue: Type of Lesion: SMALL INTESTINE: ADENOMA, Dose [Carcinogen]: 15 MG/KG 1/WK FOR 2 WK): 3%, 0%, 100%, not calculated | tumour outcome (control, treated, inhibition, significance) (Carcinogen: AZOXYMETHANE, 25843-45-2, Dose [Inhibitor]: 0, 400 PPM IN DIET FOR 56 WK BEGINNING 2 WK PRIOR TO CARCINOGEN TREATMENT (STUDY DURATION: 56 WK), Species: RAT, Strain/Sex: F344/MALE, Target Tissue: Type of Lesion: COLON (DISTAL): TUMOR, Dose [Carcinogen]: 15 MG/KG 1/WK FOR 2 WK): 47%, 36%, 23%, not significant | tumour outcome (control, treated, inhibition, significance) (Carcinogen: AZOXYMETHANE, 25843-45-2, Dose [Inhibitor]: 0, 400 PPM IN DIET FOR 56 WK BEGINNING 2 WK PRIOR TO CARCINOGEN TREATMENT (STUDY DURATION: 56 WK), Species: RAT, Strain/Sex: F344/MALE, Target Tissue: Type of Lesion: COLON (PROXIMAL): TUMOR, Dose [Carcinogen]: 15 MG/KG 1/WK FOR 2 WK): 39%, 36%, 8%, not significant | tumour outcome (control, treated, inhibition, significance) (Carcinogen: AZOXYMETHANE, 25843-45-2, Dose [Inhibitor]: 0, 400 PPM IN DIET FOR 56 WK BEGINNING 2 WK PRIOR TO CARCINOGEN TREATMENT (STUDY DURATION: 56 WK), Species: RAT, Strain/Sex: F344/MALE, Target Tissue: Type of Lesion: SMALL INTESTINE (PROXIMAL): TUMOR, Dose [Carcinogen]: 15 MG/KG 1/WK FOR 2 WK): 33%, 5%, 85%, p<0.05 | tumour outcome (control, treated, inhibition, significance) (Carcinogen: AZOXYMETHANE, 25843-45-2, Dose [Inhibitor]: 0, 400 PPM IN DIET FOR 56 WK BEGINNING 2 WK PRIOR TO CARCINOGEN TREATMENT (STUDY DURATION: 56 WK), Species: RAT, Strain/Sex: F344/MALE, Target Tissue: Type of Lesion: SMALL INTESTINE(DISTAL): TUMOR, Dose [Carcinogen]: 15 MG/KG 1/WK FOR 2 WK): 12%, 5%, 58%, not significant | tumour outcome (control, treated, inhibition, significance) (Carcinogen: AZOXYMETHANE, 25843-45-2, Dose [Inhibitor]: O, 200 PPM IN DIET 7 WK PRIOR TO CARCINOGEN TREATMENT AND CONTINUING FOR STUDY DURATION (STUDY DURATION: 59 WK), Species: RAT, Strain/Sex: F344/MALE, Target Tissue: Type of Lesion: SMALL INTESTINE, ADENOMA, Dose [Carcinogen]: 15 MG/KG 1/WK FOR 2 WK): 3%, 0%, 100%, not calculated | tumour outcome (control, treated, inhibition, significance) (Carcinogen: BENZO[A]PYRENE, 50-32-8, Dose [Inhibitor]: 0, 180 PPM IN DIET FOR 36 WK BEGINNING 48 HR PRIOR TO CARCINOGEN DOSE (STUDY DURATION: 36 WK), Species: MOUSE, Strain/Sex: STRAIN-A/FEMALE, Target Tissue: Type of Lesion: LUNG: TUMOR, Dose [Carcinogen]: 100 MG/KG IN 0.1 ML OF TRICAPRYLIN ONCE): 100%, 100%, 0%, not significant | tumour outcome (control, treated, inhibition, significance) (Carcinogen: BENZO[A]PYRENE, 50-32-8, Dose [Inhibitor]: 0, 360 PPM IN DIET FOR 36 WK BEGINNING 48 HR PRIOR TO CARCINOGEN DOSE (STUDY DURATION: 36 WK), Species: MOUSE, Strain/Sex: STRAIN-A/FEMALE, Target Tissue: Type of Lesion: LUNG: TUMOR, Dose [Carcinogen]: 100 MG/KG IN 0.1 ML OF TRICAPRYLIN ONCE): 100%, 100%, 0%, not significant | tumour outcome (control, treated, inhibition, significance) (Carcinogen: DIETHYLNITROSAMINE, 55-18-5, Dose [Inhibitor]: 0, 300 MG/KG DIET FOR DURATION OF STUDY BEGINNING 1 WK PRIOR TO CARCINOGEN TREATMENT (STUDY DURATION: 25 WK), Species: HAMSTER, Strain/Sex: SYRIAN/MALE, Target Tissue: Type of Lesion: LUNG: CARCINOMA, Dose [Carcinogen]: 17.8 MG/KG BW 2/WK FOR 20 WK): 50%, 33%, 34%, not significant | tumour outcome (control, treated, inhibition, significance) (Carcinogen: DIETHYLNITROSAMINE, 55-18-5, Dose [Inhibitor]: 0, 300 MG/KG DIET FOR DURATION OF STUDY BEGINNING 1 WK PRIOR TO CARCINOGEN TREATMENT (STUDY DURATION: 25 WK), Species: HAMSTER, Strain/Sex: SYRIAN/MALE, Target Tissue: Type of Lesion: TRACHEA: PAPILLOMA, Dose [Carcinogen]: 17.8 MG/KG BW 2/WK FOR 20 WK): 95%, 85%, 11%, not significant | tumour outcome (control, treated, inhibition, significance) (Carcinogen: DIETHYLNITROSAMINE, 55-18-5, Dose [Inhibitor]: 0, 600 MG/KG DIET FOR DURATION OF STUDY BEGINNING 1 WK PRIOR TO CARCINOGEN TREATMENT (STUDY DURATION: 25 WK), Species: HAMSTER, Strain/Sex: SYRIAN/MALE, Target Tissue: Type of Lesion: LUNG: CARCINOMA, Dose [Carcinogen]: 17.8 MG/KG BW 2/WK FOR 20 WK): 60%, 0%, 100%, p<0.0001
